In publication PMC9007951, “Systematically evaluating DOTATATE and FDG as PET immuno-imaging tracers of cardiovascular inflammation” (Scientific Reports, 2022):
Read-outs that look alike come from different tables or passages of the source.

Experiment: Timed organ biodistribution of [^64Cu]Cu-DOTATATE by ex vivo gamma counting
Type: in vivo, mice
Details: mouse, intravenous, 1.85 MBq, total radioactivity, median (IQR); for tissue uptake at 2 h: 120 min after injection; for tissue uptake at 1 min: 1 min after injection; for tissue uptake at 0.5 h: 30 min after injection; for tissue uptake at 5 min: 5 min after injection; for tissue uptake at 1 h: 60 min after injection; for tissue uptake at 0.25 h: 15 min after injection
Method: Wild-type and atherosclerotic animals were injected with approximately 1.85 MBq of [^64Cu]Cu-DOTATATE and euthanized at either 1, 5, 15, 30, 60 or 120 min after injection (Supplementary Fig. S1A) to evaluate the tracer’s biodistribution. After euthanasia, an insulin syringe was used to collect blood samples from the right ventricle. Blood samples were used for the establishment of pharmacokinetics profile. Mice were then perfused with 20 mL of phosphate-buffered saline (PBS) and tissues of interest (heart, aorta, bone marrow, spleen, liver, stomach, bladder, kidneys, intestines, lungs, adrenal gland, muscles and pancreas) were harvested. Tissues were blotted for gamma counting on a Wizard2 2480 automatic gamma counter (Perkin Elmer, Waltham, MA). Values were corrected for decay and normalized to tissue weight to express radioactivity concentration as percentage injected dose per gram (%ID/g). […] To investigate the tracer’s distribution within different blood compartments, after gamma counting, 100 μL of blood were spun down at 2000 g for 15 min at 4 °C. Plasma (supernatant) and cells (pellet) were gamma counted and expressed as percentage of total activity. The remainder of the blood was separated using Lymphoprep density gradient medium (Nycomed Pharma, Zurich, Switzerland) following manufacturer’s instructions. Percentage of activity in mononuclear and polynuclear cells was calculated.

[1] = liver, female C57BL/6 mice, N=3-7, read-out: Tissue radioactivity, liver
[2] = lungs, female Apoe^-/- mice 12 weeks on Western Diet, N=3-8, read-out: Tissue radioactivity, lungs
[3] = lungs, female C57BL/6 mice, N=3-7, read-out: Tissue radioactivity, lungs
[4] = lymph node, female Apoe^-/- mice 12 weeks on Western Diet, N=3-8, read-out: Tissue radioactivity, lymph node
[5] = lymph node, female C57BL/6 mice, N=3-7, read-out: Tissue radioactivity, lymph node
[6] = muscle, female Apoe^-/- mice 12 weeks on Western Diet, N=3-8, read-out: Tissue radioactivity, muscle
[7] = muscle, female C57BL/6 mice, N=3-7, read-out: Tissue radioactivity, muscle
[8] = pancreas, female Apoe^-/- mice 12 weeks on Western Diet, N=3-8, read-out: Tissue radioactivity, pancreas
[9] = pancreas, female C57BL/6 mice, N=3-7, read-out: Tissue radioactivity, pancreas
[10] = small intestine, female Apoe^-/- mice 12 weeks on Western Diet, N=3-8, read-out: Tissue radioactivity, small intestine
[11] = small intestine, female C57BL/6 mice, N=3-7, read-out: Tissue radioactivity, small intestine
[12] = spleen, female Apoe^-/- mice 12 weeks on Western Diet, N=3-8, read-out: Tissue radioactivity, spleen
[13] = spleen, female C57BL/6 mice, N=3-7, read-out: Tissue radioactivity, spleen
[14] = stomach, female Apoe^-/- mice 12 weeks on Western Diet, N=3-8, read-out: Tissue radioactivity, stomach
[15] = stomach, female C57BL/6 mice, N=3-7, read-out: Tissue radioactivity, stomach
[16] = tail, female Apoe^-/- mice 12 weeks on Western Diet, N=3-8, read-out: Tissue radioactivity, tail
[17] = tail, female C57BL/6 mice, N=3-7, read-out: Tissue radioactivity, tail
[18] = thoracic aorta, female Apoe^-/- mice 12 weeks on Western Diet, N=3-8, read-out: Tissue radioactivity, thoracic aorta
[19] = thoracic aorta, female C57BL/6 mice, N=3-7, read-out: Tissue radioactivity, thoracic aorta

tissue uptake at 2 h (liver, female Apoe^-/- mice 12 weeks on Western Diet, N=3-8, read-out: Tissue radioactivity, liver): 6.3 %ID/g
tissue uptake at 1 min [1]: 10 %ID/g
tissue uptake at 0.5 h [1]: 6.4 %ID/g
tissue uptake at 1 min [2]: 2.1 %ID/g
tissue uptake at 5 min [2]: 2.6 %ID/g
tissue uptake at 0.5 h [2]: 1.6 %ID/g
tissue uptake at 1 h [2]: 2.5 %ID/g
tissue uptake at 2 h [2]: 2.8 %ID/g
tissue uptake at 5 min [3]: 3.2 %ID/g
tissue uptake at 0.5 h [3]: 1.3 %ID/g
tissue uptake at 1 h [3]: 1.1 %ID/g
tissue uptake at 1 min [4]: 2.6 %ID/g
tissue uptake at 5 min [4]: 3.2 %ID/g
tissue uptake at 0.25 h [4]: 3 %ID/g
tissue uptake at 0.5 h [4]: 2.4 %ID/g
tissue uptake at 1 h [4]: 2.1 %ID/g
tissue uptake at 1 min [5]: 3 %ID/g
tissue uptake at 5 min [5]: 4.7 %ID/g
tissue uptake at 0.25 h [5]: 3.2 %ID/g
tissue uptake at 1 h [5]: 1.3 %ID/g
tissue uptake at 2 h [5]: 0.6 %ID/g
tissue uptake at 1 min [6]: 1.2 %ID/g
tissue uptake at 5 min [6]: 1.4 %ID/g
tissue uptake at 0.25 h [6]: 0.6 %ID/g
tissue uptake at 0.5 h [6]: 0.7 %ID/g
tissue uptake at 1 h [6]: 0.4 %ID/g
tissue uptake at 2 h [6]: 0.3 %ID/g
tissue uptake at 1 min [7]: 2 %ID/g
tissue uptake at 5 min [7]: 1.6 %ID/g
tissue uptake at 0.5 h [7]: 0.5 %ID/g
tissue uptake at 1 h [7]: 0.3 %ID/g
tissue uptake at 2 h [7]: 0.3 %ID/g
tissue uptake at 1 min [8]: 4.7 %ID/g
tissue uptake at 5 min [8]: 4.1 %ID/g
tissue uptake at 0.25 h [8]: 3.5 %ID/g
tissue uptake at 0.5 h [8]: 3.4 %ID/g
tissue uptake at 1 h [8]: 2.7 %ID/g
tissue uptake at 2 h [8]: 2.6 %ID/g
tissue uptake at 1 min [9]: 8.7 %ID/g
tissue uptake at 5 min [9]: 5.3 %ID/g
tissue uptake at 0.25 h [9]: 6.1 %ID/g
tissue uptake at 0.5 h [9]: 5.8 %ID/g
tissue uptake at 1 h [9]: 4.8 %ID/g
tissue uptake at 2 h [9]: 2.6 %ID/g
tissue uptake at 1 min [10]: 1.4 %ID/g
tissue uptake at 5 min [10]: 1.2 %ID/g
tissue uptake at 0.5 h [10]: 3.1 %ID/g
tissue uptake at 2 h [10]: 7.2 %ID/g
tissue uptake at 1 min [11]: 3 %ID/g
tissue uptake at 5 min [11]: 2 %ID/g
tissue uptake at 0.25 h [11]: 1.7 %ID/g
tissue uptake at 0.5 h [11]: 2.6 %ID/g
tissue uptake at 1 h [11]: 2.4 %ID/g
tissue uptake at 1 min [12]: 2 %ID/g
tissue uptake at 5 min [12]: 1.1 %ID/g
tissue uptake at 0.25 h [12]: 1.2 %ID/g
tissue uptake at 0.5 h [12]: 1.1 %ID/g
tissue uptake at 1 h [12]: 0.8 %ID/g
tissue uptake at 2 h [12]: 1.2 %ID/g
tissue uptake at 5 min [13]: 1.5 %ID/g
tissue uptake at 0.5 h [13]: 0.7 %ID/g
tissue uptake at 1 h [13]: 0.6 %ID/g
tissue uptake at 2 h [13]: 0.5 %ID/g
tissue uptake at 1 min [14]: 2.1 %ID/g
tissue uptake at 5 min [14]: 2.4 %ID/g
tissue uptake at 2 h [14]: 5 %ID/g
tissue uptake at 1 min [15]: 2.3 %ID/g
tissue uptake at 5 min [15]: 2.4 %ID/g
tissue uptake at 0.25 h [15]: 5 %ID/g
tissue uptake at 0.5 h [15]: 7.8 %ID/g
tissue uptake at 1 h [15]: 8 %ID/g
tissue uptake at 2 h [15]: 3.2 %ID/g
tissue uptake at 5 min [16]: 2.5 %ID/g
tissue uptake at 0.25 h [16]: 2.5 %ID/g
tissue uptake at 0.5 h [16]: 3.1 %ID/g
tissue uptake at 1 h [16]: 2 %ID/g
tissue uptake at 2 h [16]: 2.7 %ID/g
tissue uptake at 1 min [17]: 3.5 %ID/g
tissue uptake at 5 min [17]: 2.7 %ID/g
tissue uptake at 1 h [17]: 1.6 %ID/g
tissue uptake at 2 h [17]: 0.6 %ID/g
tissue uptake at 1 min [18]: 2.9 %ID/g
tissue uptake at 5 min [18]: 2.1 %ID/g
tissue uptake at 0.25 h [18]: 2 %ID/g
tissue uptake at 1 h [18]: 2.1 %ID/g
tissue uptake at 2 h [18]: 2.1 %ID/g
tissue uptake at 1 min [19]: 3.2 %ID/g
tissue uptake at 5 min [19]: 3.1 %ID/g
tissue uptake at 0.25 h [19]: 1.6 %ID/g
tissue uptake at 0.5 h [19]: 1.3 %ID/g
tissue uptake at 1 h [19]: 1.2 %ID/g
tissue uptake at 2 h [19]: 1 %ID/g
SMILES: C[C@@H](O)[C@H](NC(=O)[C@@H]1CSSC[C@H](NC(=O)[C@@H](Cc2ccccc2)NC(=O)CN2CCN(CC(=O)O)CCN(CC(=O)O)CCN(CC(=O)O)CC2)C(=O)N[C@@H](Cc2ccc(O)cc2)C(=O)N[C@H](Cc2c[nH]c3ccccc23)C(=O)N[C@@H](CCCCN)C(=O)N[C@@H]([C@@H](C)O)C(=O)N1)C(=O)O [[^64Cu]Cu-DOTATATE, metal not drawn]
